Tests used:
w794 DNA [1] = assay: DNA alkylation (thermal strand cleavage, PAGE) within w794 DNA; type: biochemical, SV40
w794 DNA [2] = assay: Rate of DNA alkylation at the single w794 high affinity site: pH and buffer dependence; type: biochemical, SV40; details: for change in rate of DNA alkylation over 2 pH units: 10 mM phosphate buffer, pH 6.0-8.1; for slope of plot of pH versus log κobs: pH 6-7; for pH dependence of the rate of DNA alkylation: pH 7-8
Method: Rate of DNA Alkylation: pH Dependence. […] Because this was conducted using w794 DNA additionally containing >7000 base-pairs and multiple binding sites within the unlabeled portion of the DNA, the comparisons were conducted at concentrations that provide saturated binding and restrict the kinetic analysis to the pseudo-first order rate constant for alkylation. […] The relative lack of dependence on the acid concentration (pH) especially in the most relevant pH range of 7-8 in conjunction with the observations made in the accompanying paper has led us to propose an alternative source of reaction catalysis.
Relative Rates of DNA Alkylation for (+)-1 at pH 6-8. Eppendorf tubes containing 5' end-labeled w794 DNA (9 μL) in phosphate buffer (10 mM) at pH 6.0, 6.6, 7.1, 7.6, and 8.1 were prepared. The solutions at each pH were treated with (+)-duocarmycin SA (1μL, 10^-6 M in DMSO), mixed and incubated at 25° C. for 0.5, 1.0, 1.5, 2.0 and 3.0 h. […] The reactions were stopped at each time interval by EtOH precipitation of the DNA. The alkylated DNA was resuspended in TE buffer (10 μL, pH 7.5) and heated at 100° C. for 30 min follwed by PAGE and autoradiography as detailed above.
Since these observations sharply contrast the proposed important role of acid catalysis for activation of the agents toward DNA alkylation which has served as the basis for one prominent proposal for the origin of the DNA alkylation selectivity, we have examined in detail the pH dependence of the rate of DNA alkylation for duocarmycin SA (1) and CCBI-TMI over a physiologically relevant range. […] Between pH 6-7, the slope of the plot of pH versus log κobs was 0.2-0.3, far lower than that of 1.0 required of a first-order dependence on acid concentration.

[3] = Chemical/aqueous solvolysis reactivity followed by UV; type: physicochemical
From the text: The solvolysis reactivities of N--BOC-CNA (78) and CNA (79) were followed spectrophotometrically by UV at both pH 3 (50% CH3 OH-buffer, buffer=4:1:20 v/v/v 0.1 M citric acid, 0.2 M Na2 HPO4, H2 O) and pH 7 (50% CH3 OH--H2 O). […] Particularly informative are comparisons of the benzo series of agents that differ only in the C-ring size (i.e., 76-79). Solvolysis reactivity smoothly increases through the series CBI<CBQ<CNA with both the N--BOC derivatives and the free NH derivatives.
Aqueous Solvolysis of N--BOC-CNA (78) and CNA (79). Samples of 78 (150 μg) and 79 (150 [g) were dissolved in CH3 OH (1.5 mL) and the resulting solutions were mixed with aqueous buffer (pH 3, 1.5 mL, 4:1:20 (v:v:v) 0.1 M citric acid, 0.2 M Na2 HPO4, and deionized H2 O respectively). Similarly, a solution of 78 (150 μg) in CH3 OH (1.5 mL) was mixed with deionized H2 O (pH 7, 1.5 mL). The UV spectra of the solutions were measured immediately after mixing with the appropriate aqueous solution. The blank and the solvolysis reaction solutions were stoppered, protected from light, and allowed to stand at 25° C. The total reaction times reflect those required to observe no further change in absorbance. For the solvolysis of 78 at pH 3, the UV spectrum was taken every 30 s for 10 min and then every 3 min for the next 40 min. The decrease of the absorbance at 319 nm was monitored. […] For the solvolysis of 78 at pH 7, the UV spectrum was monitored every 5 min for 19 h. […] For the solvolysis of 79 at pH 3, the UV spectrum was monitored every 2 min for the first 110 min and then every 10 min for the next 4 h. The decrease in the absorbance at 345 nm was recorded.

[4] = Calculated rate constant for acid-catalyzed solvolysis; type: physicochemical
DNA = details: cited from earlier work
[5] = system: duplex DNA (w794, w836, c988, c820, c1346); type: biochemical, SV40
w794 DNA [6] = details: pH 7.5, earlier studies; cited from earlier work
[7] = In vitro cytotoxic activity
w794 DNA [8] = assay: Relative rates of DNA alkylation for (+)-1, 53 and 54 at the w794 5'-AATTA site; type: biochemical, SV40
Method: Modifications in the Trimethoxyindole Subunit: Role of the Methoxy Substituents. DNA alkylation by the natural enantiomers of 53-56 were compared with that of 1 in w794 DNA.
Relative Rates of DNA Alkylation for (+)-1, 53, and 54. Following the procedure detailed above, Eppendorf tubes containing 5' end-labeled w794 DNA (9 μL) in TE buffer (pH 7.5) were treated with (+)-duocarmnycin SA, 53, or 54 (1 μL, 10^-5 M in DMSO). […] The solutions were mixed and incubated at 25° C. for 1, 3, 6, 12, 24, 48, and 72 h, respectively. Subsequent isolation of the alkylated DNA by EtOH precipitation, resuspension in TE buffer (10 μL, pH 7.5), thermolysis (30 min, 100° C.), concurrent PAGE, and autoradiography were conducted as detailed above. The relative rate for the alkylation at the 5'-AATTA site was derived from the slopes of the plots of percent integrated optical density (IOD) of the high affinity alkylation site cleavage bands versus time.

w836 DNA = assay: DNA alkylation sites and relative rates within the six-base A sequence (5'-AAAAAA) of w836 DNA; type: biochemical, SV40; details: 5'-AAAAAA
[9] = 10^-6 M, 25° C., pH 7.6, 10 mM phosphate
[10] = 10^-5 M, 25° C., 1-72 h, 5'-d(AATTA)

**Q.** For `COc1c(O)c2c(c3cc(C(=O)N4CCc5c4c(O)c(OC)c4[nH]c(C(=O)N6C[C@H]7C[C@@]78C6=CC(=O)c6[nH]cc(C)c68)cc54)[nH]c13)CCN2C(N)=O` [(+)-CC-1065, reference compound], which “high affinity alkylation site in w794 DNA” value (w794 DNA [1]) is on record?
**A.** 5'-AATTA

**Q.** And the “pseudo first-order rate constant for DNA alkylation, pH 7.6 (unit not given)” value (w794 DNA [2]; [9])?
**A.** 3.36×10^-4

**Q.** And the “solvolysis reactivity/stability in words or rank order” value [3]?
**A.** remarkable stability of 1-3 even at pH 5

**Q.** What about the “calculated first-order rate constant for acid-catalyzed solvolysis, pH 7.6” value [4] of the same compound?
**A.** 2.5×10^-11 s^-1

**Q.** What about the “adenine N3 adduct formation (addition to least substituted cyclopropane carbon)” value (shortened to “adenine N3 adduct formation”) (DNA) of the same compound?
**A.** > 85%

**Q.** And the “AT-rich adenine N3 alkylation selectivity (size of site)” value [5]?
**A.** 5 base-pair

**Q.** What does the source list for `COc1cc2cc(C(=O)N3C[C@H]4C[C@@]45C3=CC(=O)c3ccc(C#N)cc35)[nH]c2c(OC)c1OC` [CCBI-TMI]?
**A.** change in rate of DNA alkylation over 2 pH units (w794 DNA [2]; 10^-6 M, 25° C.): < 3 ×; effect of EDTA on the rate of DNA alkylation (w794 DNA [2]; Tris or phosphate buffer): had or no effect; slope of plot of pH versus log κobs (w794 DNA [2]): 0.2-0.3; pH dependence of the rate of DNA alkylation (w794 DNA [2]): the rate dependence on pH essentially disappeared; faster alkylation of w794 high affinity site than (+)-1 (w794 DNA [2]; throughout the pH range): 1.9-2.5 ×; relative rate of DNA alkylation at w794 high affinity site (w794 DNA [6]): 2.5 ×

**Q.** With `COC(=O)C1(C)NC2=C(C1=O)[C@@]13C[C@@H]1CN(C(=O)c1cc4cc(OC)c(OC)c(OC)c4[nH]1)C3=CC2=O` (stereo partly drawn) [duocarmycin A] as the compound, how does the “solvolysis reactivity/stability in words or rank order” value [3] read?
**A.** remarkable stability of 1-3 even at pH 5

**Q.** What about the “adenine N3 adduct formation” value (DNA) of the same compound?
**A.** 86-92%

**Q.** With `COC(=O)c1cc2c([nH]1)C(=O)C=C1N(C(=O)c3cc4cc(OC)c(OC)c(OC)c4[nH]3)CC3CC123` (stereo not drawn) [duocarmycin SA] as the compound, how does the “concentration dependence of the rate of DNA alkylation (pH study)” value (w794 DNA [2]; 10^-4 -10^-6 M) read?
**A.** independent of agent concentration

**Q.** What about the “change in rate of DNA alkylation over 2 pH units” value (w794 DNA [2]; 10^-6 M, 25° C.) of the same compound?
**A.** < 2 ×

**Q.** What about the “change in rate of DNA alkylation over 2 pH units” value (w794 DNA [2]; 10^-6 M, 25° C., listed as (+)-duocarmycin SA (1)) of the same compound?
**A.** < 3 ×

**Q.** And the “pseudo-first order rate constant for DNA alkylation, pH 7.1” value (w794 DNA [2]; 10^-6 M, 25° C., pH 7.1, 5'-AATTA)?
**A.** 1.69×10^-4 s^-1

**Q.** What about the “pseudo first-order rate constant for DNA alkylation, pH 7.6” value (w794 DNA [2]; [9]) of the same compound?
**A.** 1.58×10^-4 s^-1

**Q.** What about the “slope of plot of pH versus log κobs” value (w794 DNA [2]) of the same compound?
**A.** 0.2-0.3

**Q.** And the “pH dependence of the rate of DNA alkylation” value (“pH dependence” for short) (w794 DNA [2])?
**A.** essentially no dependence

**Q.** And the “pH dependence” value (w794 DNA [2]; listed as (+)-duocarmycin SA)?
**A.** the rate dependence on pH essentially disappeared

**Q.** What about the “pH dependence” value (w794 DNA [2]; listed as (+)-duocarmycin SA (1)) of the same compound?
**A.** the rate dependence on pH essentially disappeared

**Q.** And the “t1/2 of DNA alkylation” value (w794 DNA [2]; pH 7 / 7.1)?
**A.** 1.1 h

**Q.** What about the “t1/2 of DNA alkylation, pH 7.6” value (w794 DNA [2]; pH 7.6) of the same compound?
**A.** 1.2 h

**Q.** And the “cytotoxic / antitumor activity in words” value [7]?
**A.** biologically the most potent

**Q.** And the “concentration dependence of the rate of DNA alkylation” value (w794 DNA [8]; 10^-4 -10^-6 M)?
**A.** independent of agent concentration

**Q.** And the “relative rate of DNA alkylation κrel versus 53” value (w794 DNA [8]; [10])?
**A.** 18-33

**Q.** And the “relative rate of DNA alkylation κrel, 1 versus 54” value (w794 DNA [8]; [10])?
**A.** 1.3-2.3

**Q.** What about the “AT-rich binding site covered in w836 DNA” value (w836 DNA) of the same compound?
**A.** 3.5 base-pair

**Q.** And the “alkylated adenines within six-base A-rich sequence of w836 DNA” value (w836 DNA)?
**A.** each of the four 3' adenines

**Q.** And the “calculated rate constant for acid-catalyzed solvolysis, pH 7” value ([4]; pH 7)?
**A.** 1.08×10^-10 s^-1

**Q.** What about the “calculated first-order rate constant for acid-catalyzed solvolysis, pH 7.6” value [4] of the same compound?
**A.** 2.7×10^-11 s^-1

**Q.** What about the “relative rate of DNA alkylation at w794 high affinity site” value (w794 DNA [6]) of the same compound?
**A.** 0.9 ×

**Q.** What about the “adenine N3 adduct formation” value (DNA) of the same compound?
**A.** 95-100%

**Q.** What about the “AT-rich adenine N3 alkylation selectivity (size of site)” value [5] of the same compound?
**A.** 3.5 base-pair

Source: patent publication US6281354A, “Analogs of duocarmycin and cc-1065” (The Scripps Research Institute, priority 1999, dated 2001)
